pEC50, pIC50: −log10 of the molar value.
Columns and labels:
SH-SY5Y [1] = test: Neuroprotective activity against human SH-SY5Y cells assessed as increase in BDNF level at 20 uM measured after 48 hrs relative to control; type: functional
D(2) dopamine receptor = D(2) dopamine receptor (Homo sapiens, UniProt P14416); test: Antagonist activity at D2R (unknown origin); type: functional
Cholinesterase = Cholinesterase (Equus caballus, UniProt P81908); test: Inhibition of equine serum BuChE using BTCI as substrate pre-incubated for 10 mins followed by substrate addition measured after 5 mins by microplate reader analysis
Acetylcholinesterase = Acetylcholinesterase (Electrophorus electricus, UniProt O42275); test: Inhibition of Electrophorus electricus AChE using ATCI as substrate pre-incubated for 10 mins followed by substrate addition measured after 5 mins by microplate reader analysis
BV-2 [2] = test: Potency index, ratio of minocycline IC50 to test compound IC50 for inhibition of NO production in LPS-induced mouse BV-2 cells incubated for 24 hrs by Griess reagent based microplate reader analysis; type: functional
SH-SY5Y [3] = test: Neuroprotective activity against human SH-SY5Y cells assessed as increase in BDNF level measured after 48 hrs; type: functional, cell-based
BV-2 [4] = test: Inhibition of NO production in LPS-induced mouse BV-2 cells incubated for 24 hrs by Griess reagent based microplate reader analysis; type: functional, cell-based; details: BV-2, 24 h
[5] = target: Acetylcholinesterase (Electrophorus electricus) (UniProt O42275); test: Potency index, ratio of (S)-Dicentrine IC50 to test compound IC50 for inhibition of Electrophorus electricus AChE using ATCI as substrate pre-incubated for 10 mins followed by substrate addition measured after 5 mins by microplate reader analysis; details: time 15.0 min
[6] = target: Acetylcholinesterase (Electrophorus electricus) (UniProt O42275); test: Potency index, ratio of (R)-Roemerine IC50 to test compound IC50 for inhibition of Electrophorus electricus AChE using ATCI as substrate pre-incubated for 10 mins followed by substrate addition measured after 5 mins by microplate reader analysis; details: time 15.0 min
[7] = target: Acetylcholinesterase (Electrophorus electricus) (UniProt O42275); test: Potency index, ratio of (R)-Stephanine IC50 to test compound IC50 for inhibition of Electrophorus electricus AChE using ATCI as substrate pre-incubated for 10 mins followed by substrate addition measured after 5 mins by microplate reader analysis; details: time 15.0 min
[8] = target: T1, 5-hydroxytryptamine receptor 2A (Homo sapiens, UniProt P28223); test: Antagonist activity at 5-HT2A (unknown origin) transfected in HEK293 cells by FLIPR assay; type: functional, cell-based
[9] = target: T2, 5-hydroxytryptamine receptor 2C (Homo sapiens, UniProt P28335); test: Agonist activity at recombinant human 5-HT2C stably expressed in human T-REx-293 cells measured after 60 mins by FLIPR assay; type: functional, cell-based
T2 sequence (P28335 whole entry): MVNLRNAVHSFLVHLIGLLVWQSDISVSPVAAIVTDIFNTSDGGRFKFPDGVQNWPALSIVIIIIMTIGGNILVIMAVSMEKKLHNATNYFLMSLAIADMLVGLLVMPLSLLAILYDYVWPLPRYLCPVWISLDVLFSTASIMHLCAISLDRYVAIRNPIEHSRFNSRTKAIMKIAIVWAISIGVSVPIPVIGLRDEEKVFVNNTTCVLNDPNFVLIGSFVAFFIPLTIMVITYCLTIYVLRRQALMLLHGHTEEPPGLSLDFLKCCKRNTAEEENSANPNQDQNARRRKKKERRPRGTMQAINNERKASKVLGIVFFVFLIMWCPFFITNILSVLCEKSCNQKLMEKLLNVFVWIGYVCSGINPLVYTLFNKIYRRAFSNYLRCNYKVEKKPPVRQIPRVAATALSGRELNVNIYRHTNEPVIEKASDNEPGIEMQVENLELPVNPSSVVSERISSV

[10] = target: T3, 5-hydroxytryptamine receptor 2C (Homo sapiens) (UniProt P28335); test: Agonist activity at recombinant human 5-HT2C stably expressed in human T-REx-293 cells measured after 60 mins by FLIPR assay relative to control; type: functional, cell-based; details: filed as agonist
T3 sequence (whole entry): T2 sequence (P28335 whole entry)

[11] = target: T4, 5-hydroxytryptamine receptor 2B (Homo sapiens, UniProt P41595); test: Agonist activity at 5-HT2B (unknown origin) relative to control; type: functional; details: filed as agonist
[12] = Selectivity index, ratio of EC50 for agonist activity at 5-HT2C (unknown origin) to EC50 for agonist activity at 5-HT2A (unknown origin)
[13] = target: T1, 5-hydroxytryptamine receptor 2A; test: Agonist activity at 5-HT2A (unknown origin) relative to control; type: functional; details: filed as agonist
[14] = target: T1, 5-hydroxytryptamine receptor 2A; test: Agonist activity at 5-HT2A (unknown origin); type: functional
[15] = target: T4, 5-hydroxytryptamine receptor 2B; test: Agonist activity at 5-HT2B (unknown origin); type: functional
[16] = target: T2, 5-hydroxytryptamine receptor 2C; test: Agonist activity at 5-HT2C (unknown origin); type: functional
[17] = Selectivity index, ratio of EC50 for agonist activity at 5-HT2C (unknown origin) to EC50 for agonist activity at 5-HT2B (unknown origin)
[18] = target: T3, 5-hydroxytryptamine receptor 2C (Homo sapiens); test: Agonist activity at 5-HT2C (unknown origin) relative to control; type: functional; details: filed as agonist

Chain of Acetylcholinesterase (Electrophorus electricus) (O42275 24-633 limits assumed): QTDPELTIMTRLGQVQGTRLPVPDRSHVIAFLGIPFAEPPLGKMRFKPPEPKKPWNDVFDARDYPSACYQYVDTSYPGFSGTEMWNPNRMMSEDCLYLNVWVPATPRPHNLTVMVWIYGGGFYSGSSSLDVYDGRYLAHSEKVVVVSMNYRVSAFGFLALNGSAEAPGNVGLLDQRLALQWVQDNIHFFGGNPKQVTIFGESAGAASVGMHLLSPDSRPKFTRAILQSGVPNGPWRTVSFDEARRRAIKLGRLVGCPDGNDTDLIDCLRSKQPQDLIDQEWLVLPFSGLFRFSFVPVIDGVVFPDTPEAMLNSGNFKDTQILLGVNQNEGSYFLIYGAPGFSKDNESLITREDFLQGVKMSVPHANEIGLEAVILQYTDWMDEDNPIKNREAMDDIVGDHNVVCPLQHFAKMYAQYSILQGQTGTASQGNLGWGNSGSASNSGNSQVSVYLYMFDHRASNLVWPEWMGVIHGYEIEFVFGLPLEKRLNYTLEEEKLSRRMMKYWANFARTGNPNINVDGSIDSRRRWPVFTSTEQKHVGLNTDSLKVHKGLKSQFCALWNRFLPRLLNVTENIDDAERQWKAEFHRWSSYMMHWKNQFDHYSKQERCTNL
Chain of Cholinesterase (P81908 whole entry): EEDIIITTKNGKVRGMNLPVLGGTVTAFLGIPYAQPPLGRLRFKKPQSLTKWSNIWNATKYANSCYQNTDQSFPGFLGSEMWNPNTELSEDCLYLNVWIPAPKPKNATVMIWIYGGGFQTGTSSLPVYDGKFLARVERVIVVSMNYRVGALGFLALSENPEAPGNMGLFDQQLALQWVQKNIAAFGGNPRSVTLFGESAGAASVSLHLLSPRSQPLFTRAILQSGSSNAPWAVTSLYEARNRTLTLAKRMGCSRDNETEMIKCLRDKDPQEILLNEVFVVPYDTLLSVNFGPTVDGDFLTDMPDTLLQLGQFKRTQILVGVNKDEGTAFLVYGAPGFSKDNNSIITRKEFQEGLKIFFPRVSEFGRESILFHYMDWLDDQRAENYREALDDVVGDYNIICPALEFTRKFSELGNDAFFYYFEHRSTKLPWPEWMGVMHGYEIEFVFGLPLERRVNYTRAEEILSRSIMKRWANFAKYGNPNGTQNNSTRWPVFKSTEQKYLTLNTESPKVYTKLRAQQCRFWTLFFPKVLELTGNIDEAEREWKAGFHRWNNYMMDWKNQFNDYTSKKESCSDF
Chain of Acetylcholinesterase (O42275 whole entry): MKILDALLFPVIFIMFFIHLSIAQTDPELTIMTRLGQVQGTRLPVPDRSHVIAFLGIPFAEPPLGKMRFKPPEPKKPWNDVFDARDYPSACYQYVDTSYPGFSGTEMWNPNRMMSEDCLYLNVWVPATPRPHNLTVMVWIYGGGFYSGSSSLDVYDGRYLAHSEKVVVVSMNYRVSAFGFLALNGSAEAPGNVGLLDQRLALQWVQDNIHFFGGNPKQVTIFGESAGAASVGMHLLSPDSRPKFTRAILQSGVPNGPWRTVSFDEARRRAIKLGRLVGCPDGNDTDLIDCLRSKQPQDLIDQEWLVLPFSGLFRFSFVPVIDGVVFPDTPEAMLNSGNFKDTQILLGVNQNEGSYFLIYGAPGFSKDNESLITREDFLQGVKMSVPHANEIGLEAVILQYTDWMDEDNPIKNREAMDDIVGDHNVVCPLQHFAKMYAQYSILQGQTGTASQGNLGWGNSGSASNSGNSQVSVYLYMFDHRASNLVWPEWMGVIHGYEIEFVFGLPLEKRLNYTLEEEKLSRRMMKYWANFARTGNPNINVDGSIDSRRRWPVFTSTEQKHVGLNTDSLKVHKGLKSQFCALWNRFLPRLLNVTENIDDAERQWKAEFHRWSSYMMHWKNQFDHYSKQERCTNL
T1 sequence (P28223 whole entry): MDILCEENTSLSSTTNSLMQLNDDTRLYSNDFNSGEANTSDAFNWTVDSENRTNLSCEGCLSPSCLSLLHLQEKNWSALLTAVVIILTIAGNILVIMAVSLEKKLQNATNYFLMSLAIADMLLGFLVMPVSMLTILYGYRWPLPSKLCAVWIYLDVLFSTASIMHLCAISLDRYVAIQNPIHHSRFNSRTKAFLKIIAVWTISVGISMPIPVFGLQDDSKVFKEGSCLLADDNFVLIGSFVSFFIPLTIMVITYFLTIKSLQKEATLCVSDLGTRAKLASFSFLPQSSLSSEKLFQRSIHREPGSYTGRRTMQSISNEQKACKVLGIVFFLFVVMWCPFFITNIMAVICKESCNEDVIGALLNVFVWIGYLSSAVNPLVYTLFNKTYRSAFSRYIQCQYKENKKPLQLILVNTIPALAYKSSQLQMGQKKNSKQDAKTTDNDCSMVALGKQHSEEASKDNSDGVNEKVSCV
T4 sequence (P41595 whole entry): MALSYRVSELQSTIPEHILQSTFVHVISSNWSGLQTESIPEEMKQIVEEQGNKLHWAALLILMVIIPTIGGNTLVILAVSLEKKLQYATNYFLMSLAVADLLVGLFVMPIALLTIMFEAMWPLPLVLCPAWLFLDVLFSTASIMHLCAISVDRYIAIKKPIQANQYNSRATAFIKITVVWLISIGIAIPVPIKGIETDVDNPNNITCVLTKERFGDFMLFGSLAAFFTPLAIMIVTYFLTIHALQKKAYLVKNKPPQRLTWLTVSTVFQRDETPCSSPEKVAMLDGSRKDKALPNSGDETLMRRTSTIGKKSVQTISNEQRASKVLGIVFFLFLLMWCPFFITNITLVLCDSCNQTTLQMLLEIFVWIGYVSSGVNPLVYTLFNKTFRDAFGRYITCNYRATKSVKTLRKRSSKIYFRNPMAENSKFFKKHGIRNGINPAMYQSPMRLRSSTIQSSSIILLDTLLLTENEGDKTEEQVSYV
Chain of D(2) dopamine receptor (P14416 whole entry): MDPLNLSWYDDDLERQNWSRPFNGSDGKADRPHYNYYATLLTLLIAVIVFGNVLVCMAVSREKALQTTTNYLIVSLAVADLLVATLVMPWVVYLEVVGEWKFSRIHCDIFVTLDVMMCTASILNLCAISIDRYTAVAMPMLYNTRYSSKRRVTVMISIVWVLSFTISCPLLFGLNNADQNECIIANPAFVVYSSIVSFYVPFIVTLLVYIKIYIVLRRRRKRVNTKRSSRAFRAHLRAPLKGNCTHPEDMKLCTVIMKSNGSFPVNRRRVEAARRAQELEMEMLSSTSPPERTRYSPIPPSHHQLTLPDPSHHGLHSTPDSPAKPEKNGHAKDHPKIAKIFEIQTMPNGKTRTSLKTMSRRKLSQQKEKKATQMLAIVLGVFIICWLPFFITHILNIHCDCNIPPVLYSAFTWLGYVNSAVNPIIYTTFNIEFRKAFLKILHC

CN1CCc2cc3c(c4c2[C@H]1Cc1ccccc1-4)OCO3
Activity (SH-SY5Y [1]): 73% | pIC50 (D(2) dopamine receptor): 4.73 | pIC50 (Cholinesterase): 5.55 | pIC50 (Acetylcholinesterase): 5.08

COc1ccc2c(c1OC)C[C@@H]1c3c(cc4c(c3-2)OCO4)CCN1C
Ratio IC50 (BV-2 [2]): 3 | pIC50 (SH-SY5Y [3]): 5.28 | pIC50 (BV-2 [4]): 5.28 | pIC50 (Cholinesterase): 4.76 | pIC50 (Acetylcholinesterase): 4.98

COc1cc2cc3c4c(cc5c(c4c2cc1OC)OCO5)CCN3C [DEHYDRODICENTRINE]
Ratio IC50 [5]: 4 | Ratio IC50 [6]: 4 | pIC50 (Cholinesterase): 5.25 | pIC50 (Acetylcholinesterase): 5.96 | Ratio IC50 [7]: 4

COc1c(O)cc2c3c1-c1ccccc1CC3N(C)CC2 (stereo not given)
pIC50 [8]: 4.71

COc1ccc2c3c1-c1ccccc1CC3NCC2 (stereo not given)
pEC50 [9]: 6.99 | Emax [10]: 96%

Oc1cc2c3c(c1Cl)-c1ccccc1CC3NCC2 (stereo not given)
Emax [11]: 63.5% | Ratio EC50 [12]: 25 | Emax [13]: 44.9% | pEC50 [14]: 6.22 | pEC50 [15]: 6.56 | pEC50 [16]: 7.63 | Ratio EC50 [17]: 12 | Emax [18]: 102%

— ChEMBL document CHEMBL5370537, “Aporphines: A privileged scaffold in CNS drug discovery” (Eur J Med Chem, 2023)
